SMILES strings stand for the structures.

IC50 data for 25 molecules are collected here from EP4748841A1, “BICYCLO[5,6] IMIDAZOLE PYRIMIDONE DERIVATIVE AND PREPARATION METHOD THEREFOR AND USE THEREOF” (Shujing Biopharma Co., Ltd, priority 2023, dated 2025).

The target of this test is T1, Lp-PLA2 (Homo sapiens, UniProt Q13093).
T1 construct: from tissue; host or cells: pooled (mixed) human plasma
T1 sequence (Q13093 22-441): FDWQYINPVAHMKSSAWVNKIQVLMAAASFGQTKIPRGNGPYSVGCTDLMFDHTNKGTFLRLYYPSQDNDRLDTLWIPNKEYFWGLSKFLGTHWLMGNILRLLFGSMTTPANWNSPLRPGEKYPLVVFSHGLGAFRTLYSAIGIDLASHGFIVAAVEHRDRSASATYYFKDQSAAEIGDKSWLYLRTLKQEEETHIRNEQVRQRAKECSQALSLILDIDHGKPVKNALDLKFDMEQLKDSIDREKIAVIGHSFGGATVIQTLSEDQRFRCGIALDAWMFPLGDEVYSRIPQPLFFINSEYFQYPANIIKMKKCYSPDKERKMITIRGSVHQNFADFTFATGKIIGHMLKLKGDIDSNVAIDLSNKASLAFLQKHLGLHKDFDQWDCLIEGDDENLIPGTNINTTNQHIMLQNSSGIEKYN
Briefly: Inhibitory activity against Lp-PLA2 in human plasma (Thio-PAF assay). The conditions noted are these: 2-thio-PAF substrate, 30 min pre-incubation. The format is biochemical. The text has this: The literature reports that 2-Thio-PAF, commercially available from Cayman Chemical, is a substrate for PAF hydrolase (PAF-AH). After its cleavage by PAF-AH, the free thiol released at the sn-2 position can react with 7-diethylamino-3-(4'-maleimidophenyl)-4-methylcoumarin (CPM), resulting in increased fluorescence. Thus, Lp-PLA2 inhibitors can prevent this cleavage, and no increase in fluorescence is observed. In this experiment, the human plasma assay employed the same thioester analog of PAF as described in the recombinant human Lp-PLA2 assay described above.
• (1) The Thio-PAF assay was performed as a quenched 75 µL assay. A compound source plate was prepared by preparing 1:4 (v/v) serial diluents of the compounds in pure DMSO in a 96-well microplate. • (2) 1 µL of each test compound from the compound source plate was transferred into a 96-well microplate containing 40 µL of pre-thawed mixed human plasma by a Rainin multichannel pipette, and the plasma was thawed at room temperature and centrifuged at 2000 rpm for 10 min. The plate was shaken on a microplate shaker for 2 min for uniform mixing. • (3) After 30 min of pre-incubation at room temperature, 10 µL of a substrate solution was added sequentially to the 96-well microplate described above by a Rainin multichannel pipette. The substrate solution contained 2.5 mM 2-thio-PAF (from an ethanol mother liquor), 32 µM CPM (from a DMSO mother liquor), and 3.2 mM N-ethylmaleimide (freshly prepared in DMSO for each experiment) in assay buffer (pH 7.4) consisting of 50 mM HEPES, 150 mM NaCl, and 1 mM CHAPS. After the addition was completed, the plate was immediately shaken for 2 min, and the reaction time for the substrate was 4 min in total. After the reaction was completed, the reaction was quenched with 25 µL of an aqueous solution of 5% trifluoroacetic acid. The plate was centrifuged at 1000 rpm for 1 min. • (4) The FLINT signal (FLINT380/480) was read using a microplate reader. • (5) IC50 data, curve fitting, and QC analyses were performed using GraphPad Prism 8.0 and Excel.

With `O=c1nc(OCc2ccc(Oc3ccc(C(F)(F)F)nc3)c(F)c2)cc2n1CC1CCN21` (stereo not shown) [Example 1], the IC50 – broadly, the concentration needed to halve the response being measured – was 3.9 nM.

`O=c1nc(OCc2ccc(F)cc2)cc2n1CC1CCN21` (stereo not shown) [Example 7, 3-((4-Fluorobenzyl)oxy)-6,7,7a,8-tetrahydro-1H-azeto[1',2':3,4]imidazo[1,2-c]pyrimidin-1-one] gave an IC50 of 68.7 nM.

`Cc1ccc(COc2cc3n(c(=O)n2)CC2CCN32)cc1` (stereo not shown) [Example 8, 3-((4-Methylbenzyl)oxy)-6,7,7a,8-tetrahydro-1H-azeto[1',2':3,4]imidazo[1,2-c]pyrimidin-1-one] returned an IC50 of 2430 nM.

`O=c1nc(OCc2ccc(Oc3ccccc3)cc2)cc2n1CC1CCN21` (stereo not shown) [Example 12, 3-((4-Phenoxybenzyl)oxy)-6,7,7a,8-tetrahydro-1H-azeto[1',2':3,4]imidazo[1,2-c]pyrimidin-1-one]: the IC50 was 2090 nM.

In the case of `O=c1nc(OCc2ccc(Oc3ccccc3)nc2)cc2n1CC1CCN21` (stereo not shown) [Example 16, 3-((6-Phenoxypyridin-3-yl)methoxy)-6,7,7a,8-tetrahydro-1H-azeto[1',2':3,4]imidazo[1,2-c]pyrimidin-1-one], the IC50 came to 2740 nM.

Molecule `N#Cc1cc(COc2cc3n(c(=O)n2)CC2CCN32)ccc1Oc1ccc(C(F)(F)F)cn1` (stereo not shown) [Example 21, 5-(((1-Oxo-6,7,7a,8-tetrahydro-1H-azeto[1',2':3,4]imidazo[1,2-c]pyrimidin-3-yl)oxy)methyl)-2-((5-(trifluoromethyl)pyridin-2-yl)oxy)benzonitrile] displayed an IC50 of 200 nM.

The molecule `N#Cc1cc(COc2cc3n(c(=O)n2)CC2CCN32)ccc1Oc1cccc(C(F)(F)F)c1` (stereo not shown) [Example 22, 5-(((1-Oxo-6,7,7a,8-tetrahydro-1H-azeto[1',2':3,4]imidazo[1,2-c]pyrimidin-3-yl)oxy)methyl)-2-(3-(trifluoromethyl)phenoxy)benzonitrile] displayed a 50% inhibitory concentration (IC50) of 4.6 nM.

As for `O=c1nc(OCc2ccc(Oc3ccnc(C(F)(F)F)c3)c(F)c2)cc2n1CC1CCN21` (stereo not shown) [Example 23], half-maximal inhibition (IC50) was put at 4.3 nM.

As for `O=c1nc(OCc2ccc(Oc3ccc(F)c(F)c3)c(F)c2)cc2n1CC1CCN21` (stereo not shown) [Example 24, 3-((4-(3,4-Difluorophenoxy)-3-fluorobenzyl)oxy)-6,7,7a,8-tetrahydro-1H-azeto[1',2':3,4]imidazo[1,2-c]pyrimidin-1-one], 12.7 nM corresponded to half-maximal inhibition (IC50).

In turn, `N#Cc1ccc(COc2cc3n(c(=O)n2)CC2CCN32)cc1` (stereo not shown) [Example 28, 3-((4-Cyanobenzyl)oxy)-6,7,7a,8-tetrahydro-1H-azeto[1',2':3,4]imidazo[1,2-c]pyrimidin-1-one] showed an IC50 of 892 nM.

Regarding `O=c1nc(OCc2cc(F)c(Oc3ccnc(C(F)(F)F)c3)c(F)c2)cc2n1C[C@@H]1CCN21` [Example 34-S], the IC50 is 52.3 nM.

Molecule `O=c1nc(OCc2cc(F)c(Oc3ccnc(C(F)(F)F)c3)c(F)c2)cc2n1CC1CCN21` (stereo not shown) [Example 34] returned an IC50 of 5.2 nM.

`Cc1ccc(Oc2c(F)cc(COc3cc4n(c(=O)n3)C[C@H]3CCN43)cc2F)cn1` [Example 36-R] had an IC50 of 15.9 nM.

Turning to `Cc1ccc(Oc2c(F)cc(COc3cc4n(c(=O)n3)C[C@@H]3CCN43)cc2F)cn1` [Example 36-S], the IC50 was 96.4 nM.

Take `Cc1ccc(Oc2c(F)cc(COc3cc4n(c(=O)n3)CC3CCN43)cc2F)cn1` (stereo not shown) [Example 36]: the IC50 was determined as 35.8 nM.

For `O=c1nc(OCc2cnc(Oc3ccc(Cl)c(C(F)(F)F)c3)c(F)c2)cc2n1CC1CCN21` (stereo not shown) [Example 38, 3-((6-(4-Chloro-3-(trifluoromethyl)phenoxy)-5-fluoropyridin-3-yl)methoxy)-6,7,7a,8-tetrahydro-1H-azeto[1',2':3,4]imidazo[1,2-c]pyrimidin-1-one], the IC50 stood at 56.3 nM.

`N#Cc1cc(COc2cc3n(c(=O)n2)CC2CCN32)ccc1Oc1ccc(Cl)c(C(F)(F)F)c1` (stereo not shown) [Example 39, 2-(4-Chloro-3-(trifluoromethyl)phenoxy)-5-(((1-oxo-6,7,7a,8-tetrahydro-1H-azeto[1',2':3,4]imidazo[1,2-c]pyrimidin-3-yl)oxy)methyl)benzonitrile] registered an IC50 of 3.9 nM.

`O=c1nc(OCc2ccc(Oc3ccc(F)c(C(F)(F)F)c3)nc2)cc2n1CC1CCN21` (stereo not shown) [Example 41, 3-((6-(4-Fluoro-3-(trifluoromethyl)phenoxy)pyridin-3-yl)methoxy)-6,7,7a,8-tetrahydro-1H-azeto[1',2':3,4]imidazo[1,2-c]pyrimidin-1-one] returned an IC50 of 292 nM.

In turn, `Cc1ncc(Oc2c(F)cc(COc3cc4n(c(=O)n3)CC3CCN43)cc2F)cn1` (stereo not shown) [Example 44] displayed a concentration for half-maximal inhibition (IC50) of 25.6 nM.

`Cn1cc(Oc2c(F)cc(COc3cc4n(c(=O)n3)CC3CCN43)cc2F)cn1` (stereo not shown) [Example 45] registered an IC50 of 203 nM.

As to `O=c1nc(OCc2ccc(Oc3ccc(Cl)c(C(F)(F)F)c3)cc2)cc2n1CC1CCN21` (stereo not shown) [Example 50, 3-((4-(4-Chloro-3-(trifluoromethyl)phenoxy)benzyl)oxy)-6,7,7a,8-tetrahydro-1H-azeto[1',2':3,4]imidazo[1,2-c]pyrimidin-1-one], the IC50 stood at 12.6 nM.

For the molecule `O=c1nc(OCc2ccc(Oc3cnc(C(F)(F)F)nc3)c(F)c2)cc2n1CC1CCN21` (stereo not shown) [Example 51], the IC50 was determined as 21.2 nM.

`O=c1nc(OCc2cc(F)c(Oc3ccc(C(F)(F)F)nc3)c(F)c2)cc2n1CC1CCN21` (stereo not shown) [Example 52] had an IC50 of 4.3 nM.

`N#Cc1cc(Oc2ccc(COc3cc4n(c(=O)n3)CC3CCN43)cc2F)ccc1Cl` (stereo not shown) [Example 53, 2-Chloro-5-(2-fluoro-4-(((1-oxo-6,7,7a,8-tetrahydro-1H-azeto[1',2':3,4]imidazo[1,2-c]pyrimidin-3-yl)oxy)methyl)phenoxy)benzonitrile] came in with an IC50 of 107 nM.

As for `O=c1nc(OCc2ccc(F)c(F)c2)cc2n1CC1CCN21` (stereo not shown) [Example 54, 3-((3,4-Difluorobenzyl)oxy)-6,7,7a,8-tetrahydro-1H-azeto[1',2':3,4]imidazo[1,2-c]pyrimidin-1-one], 30.3 nM corresponded to half-maximal inhibition (IC50).
